Source: patent publication US20250186442A1, “Obicetrapib and Ezetimibe Combination Treatment and Fixed Dose Pharmaceutical Compositions” (NewAmsterdam Pharma B.V., priority 2022, published 2025)

What was measured:
[1] = patients; daily dosing of 10 mg for 12 weeks, alone and with 2 different statins; cited from earlier work
HDL-C = conditions: TA-8995-03; 10 mg daily dose, mild dyslipidemia; cited from earlier work
[2] = ROSE2 phase 2b clinical trial - safety and tolerability (adverse events); format: in vivo, human; conditions: All Randomized Participants; obicetrapib 10 mg (N = 39), obicetrapib 10 mg + ezetimibe 10 mg (N = 40)
Method: (§1) The exploratory objectives of this study include the following: • To evaluate the effect of obicetrapib 10 mg+ezetimibe 10 mg combination therapy and obicetrapib 10 mg monotherapy, when used as an adjunct to high-intensity statin therapy, on non-high-density lipoprotein cholesterol (non-HDL-C), very low-density lipoprotein cholesterol (VLDL-C), HDL-C, TG, ApoE, Lp(a), and HDL-ApoE at Day 84; • To evaluate the effect of obicetrapib 10 mg+ezetimibe 10 mg combination therapy and obicetrapib 10 mg monotherapy, when used as an adjunct to high-intensity statin therapy, on the proportion of participants achieving predefined LDL-C targets at Day 84; • To assess the mean trough plasma levels of obicetrapib 10 mg+ezetimibe 10 mg combination therapy and obicetrapib 10 mg monotherapy at steady state on Days 28, 84, and 112; and • To evaluate the safety and tolerability profiles of obicetrapib 10 mg+ezetimibe 10 mg combination therapy and obicetrapib 10 mg monotherapy, when used as an adjunct to high-intensity statin therapy, assessed by clinical laboratory values and incidence of AEs.
The safety and tolerability profile of obicetrapib 10 mg, both in combination with ezetimibe 10 mg and as monotherapy, will be assessed by clinical laboratory assessments (chemistry and hematology), vital signs, physical examinations, and the incidence of AEs.
An AE can therefore be any unfavorable and/or unintended sign (including an abnormal laboratory finding), symptom, or disease temporally associated with the use of an investigational medicinal product, whether or not related to the investigational medicinal product. All AEs, including observed or volunteered problems, complaints, or symptoms, are to be recorded on the appropriate eCRF.
AEs, which include clinical laboratory assessment variables, will be monitored and documented from the time of first dose of study treatment until completion of Visit 5. Participants should be instructed to report any AE that they experience to the Investigator, whether or not they think the event is due to study drug. Beginning at the date of the first dose of study treatment, Investigators should make an assessment for AEs at each visit and record the event on the appropriate AE eCRF.
The Investigator will assess the severity (intensity) of each AE as mild, moderate, or severe, and will also categorize each AE as to its potential relationship to study drug using the categories of yes or no.
• Mild—An event that is easily tolerated and generally not interfering with normal daily activities. • Moderate—An event that is sufficiently discomforting to interfere with normal daily activities. • Severe—An event that is incapacitating with inability to work or perform normal daily activities.
An AE or adverse reaction is considered serious if, in the view of either the Investigator or Sponsor, it results in any of the following outcomes: • Death; • A life-threatening AE;
The Safety Population will include all participants who receive at least 1 dose of any study drug. Treatment classification will be based on the actual treatment received. The Safety Population will be the primary population used for the safety analyses.

Lp(a) = assay: ROSE2 phase 2b clinical trial - Lp(a); format: in vivo, human; conditions: mITT Population; obicetrapib 10 mg, ezetimibe 10 mg
Method: as §1
This study will be a placebo-controlled, double-blind, randomized, Phase 2 study to evaluate the efficacy, safety, and tolerability of obicetrapib 10 mg, both in combination with ezetimibe 10 mg and as monotherapy, as an adjunct to high-intensity statin therapy. This study will take place at approximately 20 sites in the United States.
Up to 2 weeks after the Screening Visit, participants will return to the site on Day 1 (Visit 2) and confirm study eligibility before being randomized and beginning treatment. Approximately 114 eligible participants (38 participants per treatment group) will be randomized in a 1:1:1 ratio to 1 of the following treatment groups: • Combination therapy: Obicetrapib 10 mg+ezetimibe 10 mg (administered as one 10 mg obicetrapib tablet and one 10 mg ezetimibe capsule); • Obicetrapib monotherapy: Obicetrapib 10 mg (administered as one 10 mg obicetrapib tablet and 1 placebo capsule); or • Placebo (administered as 1 placebo tablet and 1 placebo capsule).
The exploratory efficacy endpoints include the following: • Percent change from Day 1 to Day 84 in non-HDL-C, VLDL-C, HDL-C, TG, ApoE, Lp(a), and HDL-ApoE for the obicetrapib 10 mg+ezetimibe 10 mg combination treatment group compared with the placebo group and for the obicetrapib 10 mg monotherapy treatment group compared with the placebo group; and • Proportion of participants at Day 84 that achieve LDL-C<2.6 mmol/L (<100 mg/dL), LDL-C<1.8 mmol/L (<70 mg/dL), and LDL-C<1.3 mmol/L (<50 mg/dL) for the obicetrapib 10 mg+ezetimibe 10 mg combination treatment group compared with the placebo group and for the obicetrapib 10 mg monotherapy treatment group compared with the placebo group.
Blood samples for the lipid profile must be obtained under fasting conditions (ie, after the participant has fasted for approximately 10 hours). For the purposes of this study, fasting will be defined as nothing by mouth except water and any essential medications. If a participant is not fasting, the Investigator should reschedule the visit as soon as possible. LDL-C level will be calculated using the Friedewald equation unless TG≥400 mg/dL or LDL-C≤50 mg/dL; in both cases, LDL-C level will be measured directly by preparative ultracentrifugation, also referred to as beta quantification. Additionally, LDL-C will be measured by preparative ultracentrifugation, also referred to as beta quantification, at baseline (Visit 2) and at the end of the 12-week Treatment Period (Visit 4) for all participants.
The Modified ITT (mITT) Population will include all participants in the ITT Population who receive at least 1 dose of any study drug and have a baseline value for the LDL-C assessment. […]

ApoA1 = conditions: TA-8995-03; 10 mg daily dose, mild dyslipidemia; cited from earlier work
[3] = test system: critical physiological systems; conditions: doses up to 300 mg/kg in rats; cited from earlier work

For CCOC(=O)N1c2ccc(C(F)(F)F)cc2[C@@H](N(Cc2cc(C(F)(F)F)cc(C(F)(F)F)c2)c2ncc(OCCCC(=O)O)cn2)C[C@H]1CC [Obicetrapib, {4-[(2-{[3,5-bis(trifluoromethyl)benzyl][(2R,4S)-1-(ethoxycarbonyl)-2-ethyl-6-(trifluoromethyl)-1,2,3,4-tetrahydroquinolin-4-yl]amino}pyrimidin-5-yl)oxy]butanoic acid}], the tolerability [1] is given as “well tolerated”, the HDL-C efflux capacity (HDL-C) is given as “significant increase” and the HDL-C increase (HDL-C) is given as 179.0%. The “Primary reason for early study discontinuation: ADVERSE EVENT, (%)” value [2] was “(2.6) %”, the “Primary reason for treatment discontinuation: ADVERSE EVENT, (%)” value [2] was “(5.1) %” and the “Lp(a) Change from Baseline to Day 84, Mean” value (Lp(a)) was -19.71 nmol/L. For the same compound, the “Lp(a) Change from Baseline to Day 84, Median” value (Lp(a)) was -4.50 nmol/L, the “Lp(a) Day 84, Mean” value (Lp(a)) was 77.96 nmol/L and the “Lp(a) Day 84, Median” value (Lp(a)) was 26.25 nmol/L. The “Lp(a) Percent Change from Baseline to Day 84 (%), Mean” value (Lp(a)) was −15.16%, the “Lp(a) Percent Change from Baseline to Day 84 (%), Median” value (Lp(a)) was −11.95% and the ApoA1 increase (ApoA1) was 63.4%. For the same compound, the “adverse effect on critical physiological systems” value [3] was “no adverse effect”.
